Literature values as cited in patent US6559183B1, “Nano-emulsion of 5-aminolevulinic acid” (ASAT AG Applied Science & Technology, priority 1998, dated 2003).

Conditions: high concentrations required for clinical application, neutral to basic pH range, 25 h

stability in aqueous solutions: unstable
SMILES: NCC(=O)CCC(=O)O [aminolevulinic acid, 5-aminolevulinic acid]
